This is an account of results in patent US8753648B2 (priority 2002, dated 2014).

The subject of data set [1] is CV-1 cells. Particulars: African green monkey.
The subject of data set [2] is RK44.20 cells. The note with it: rabbit.
Data set [3] relates to cowpox virus. The note with it: mouse, in vivo; cited from earlier work.
The test system of data set [4] is cowpox virus. The note with it: mouse, in vivo; cited from earlier work. The source holds these as a separate data set.

Regarding `Cc1cn([C@H]2C[C@H](N=[N+]=[N-])[C@@H](CO)O2)c(=O)[nH]c1=O` [AZT, 3′-azido-2′,3′-dideoxythymidine], the “AZT concentration with toxic effect on cells” value in data set [1] and in data set [2] was above 1.5 mg/mL each time.
As to `Nc1ccn(C[C@@H](CO)OCP(=O)(O)O)c(=O)n1` [Cidofovir], the effect on mortality entry in data set [3] is recorded as “reduce mortality”. In addition, the effect on death result in data set [4] was “only delayed but did not prevent death”.
